Reference: PubChem BioAssay (NCI)
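Values below derive from 48-hour exposures of cells grown in 96-well plates, with endpoints linearly interpolated between the two concentrations bracketing the appropriate inhibition level. TGI is the concentration that stops growth completely.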

Assays:
Test in all cases: inhibition of tumour cell growth, NCI panel, 48 h
[1] = tested on: 786-0 renal
[2] = tested on: A498 renal
[3] = tested on: A549 NSCLC
[4] = tested on: ACHN renal
[5] = tested on: BT-549 breast
[6] = tested on: CAKI-1 renal
[7] = tested on: CCRF-CEM leukemia
[8] = tested on: COLO 205 colon
[9] = tested on: DU-145 prostate
[10] = tested on: EKVX NSCLC
[11] = tested on: HCC-2998 colon
[12] = tested on: HCT-116 colon
[13] = tested on: HCT-15 colon
[14] = tested on: HOP-62 NSCLC
[15] = tested on: HOP-92 NSCLC
[16] = tested on: HS 578T breast
[17] = tested on: HT29 colon
[18] = tested on: IGROV1 ovarian
[19] = tested on: K-562 leukemia
[20] = tested on: KM12 colon
[21] = tested on: LOX IMVI melanoma
[22] = tested on: M14 melanoma
[23] = tested on: MALME-3M melanoma
[24] = tested on: MCF7 breast
[25] = tested on: MDA-MB-231 breast
[26] = tested on: MDA-MB-435
[27] = tested on: MDA-N
[28] = tested on: MOLT-4 leukemia
[29] = tested on: NCI-H226 lung
[30] = tested on: NCI-H23 lung
[31] = tested on: NCI-H460 lung
[32] = tested on: NCI-H522 lung
[33] = tested on: NCI/ADR-RES ovarian
[34] = tested on: OVCAR-3 ovarian
[35] = tested on: OVCAR-4 ovarian
[36] = tested on: OVCAR-5 ovarian
[37] = tested on: OVCAR-8 ovarian
[38] = tested on: PC-3 prostate
[39] = tested on: RPMI-8226 leukemia
[40] = tested on: RXF 393 renal
[41] = tested on: SF-268 CNS
[42] = tested on: SF-295 CNS
[43] = tested on: SF-539 CNS
[44] = tested on: SK-MEL-2 melanoma
[45] = tested on: SK-MEL-28 melanoma
[46] = tested on: SK-MEL-5 melanoma
[47] = tested on: SK-OV-3 ovarian
[48] = tested on: SN12C renal
[49] = tested on: SNB-19 CNS
[50] = tested on: SR leukemia
[51] = tested on: SW-620 colon
[52] = tested on: T-47D breast
[53] = tested on: TK-10 renal
[54] = tested on: U251 CNS
[55] = tested on: UACC-257 melanoma
[56] = tested on: UACC-62 melanoma
[57] = tested on: UO-31 renal

Measured: TGI

c1ccc2c[n+](Cc3ccnc4ccccc34)ccc2c1
> 100 µM: [1] | [2] | [3] | [4] | [5] | [6] | [7] | [8] | [9] | [10] | [11] | [12] | [13] | [14] | [15] | [16] | [17] | [18] | [19] | [20] | [21] | [22] | [23] | [24] | [25] | [26] | [27] | [28] | [29] | [30] | [31] | [32] | [33] | [34] | [35] | [36] | [37] | [38] | [39] | [40] | [41] | [42] | [43] | [44] | [45] | [46] | [47] | [48] | [49] | [50] | [51] | [52] | [53] | [54] | [55] | [56] | [57]
